Consider five molecules from ChEMBL document CHEMBL1201862, “PubChem BioAssay data set” (2004).

Test systems include CAKI-1; COLO 205; HCT-116; HL-60; HOP-62; KM12; LOX IMVI; NCI-H226; NCI-H23; OVCAR-4; RXF 393; SF-268; SF-295; SF-539; SK-MEL-2; SR; UO-31.
Holding throughout (test): NCI tumour cell line growth inhibition, 48 h

Structures are written as SMILES.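 96-well plates; 48 h exposure; 5 concentrations. Endpoints by linear interpolation between flanking doses. Not reached: highest tested concentration assigned. Here, GI50 denotes the concentration required for 50% inhibition of growth.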 Calls of active or inactive are those of the source. Rule as the data show it: active = GI50 up to about 1.1 µM and inactive = higher.

For `Cc1cc(C)c2c(c1)CN1CN2Cc2cc(C)cc(C)c21`, the GI50 was 34.1 µM (inactive) in the assay on CAKI-1; 22.1 µM (inactive) with COLO 205; 19.4 µM (inactive) with HCT-116; 26.4 µM (inactive) in the assay with HL-60; 18.7 µM (inactive) in the assay with HOP-62; 18.2 µM (inactive) with KM12. For the same molecule, the GI50 with LOX IMVI is 17 µM (inactive); in the assay with NCI-H226, 26 µM (inactive); with NCI-H23, 20.8 µM (inactive); with OVCAR-4 it was 18.3 µM (inactive); in the assay with RXF 393 it was 6.68 µM (inactive); in the assay on SF-268, 31.6 µM (inactive). For the same molecule, the GI50 in the assay on SF-295 was 18.7 µM (inactive); in the assay with SF-539 it was > 10 µM (inactive); in the assay on SK-MEL-2, > 10 µM (inactive); in the assay on SR, 18.8 µM (inactive); in the assay with UO-31, 24.4 µM (inactive).

`CC1=C(NC(=O)C(=O)NNC(=O)c2ccncc2)C(=O)c2ccccc2C1=O`: the GI50 in the assay with CAKI-1 is 22.8 µM (inactive); with COLO 205 it was 17.3 µM (inactive); in the assay with HCT-116, 11.4 µM (inactive); in the assay on HL-60, 10.8 µM (inactive); in the assay on HOP-62, 17.5 µM (inactive); with KM12, 15.3 µM (inactive). Moreover, the GI50 with LOX IMVI is 3.66 µM (inactive); in the assay with NCI-H226 it was 14.2 µM (inactive); in the assay on NCI-H23 it was 6.32 µM (inactive); in the assay on OVCAR-4, 13.8 µM (inactive); in the assay on RXF 393, 15.4 µM (inactive); with SF-268, 23.6 µM (inactive). The GI50 is 10.8 µM (inactive) in the assay on SF-295; 17.2 µM (inactive) in the assay on SF-539; 2.3 µM (inactive) in the assay with SK-MEL-2; 9.12 µM (inactive) in the assay with SR; 18 µM (inactive) with UO-31.

Take `[N-]=[N+]=C1C(=O)C2CC3CC(C2)CC1C3`: the GI50 with CAKI-1, with COLO 205, in the assay on HCT-116, in the assay with HL-60, in the assay on HOP-62 and with KM12 was > 100 µM (inactive) throughout. In addition, the GI50 with LOX IMVI, in the assay with NCI-H226, with NCI-H23, in the assay on OVCAR-4, with RXF 393 and with SF-268 was > 100 µM (inactive) in each case. Moreover, the GI50 with SF-295, with SF-539, with SK-MEL-2, with SR and with UO-31 was > 100 µM (inactive) in each case.

With `Oc1nnc2c(-c3ccccc3)n[nH]c2n1`, the GI50 is 45.5 µM (inactive) in the assay on CAKI-1; > 100 µM (inactive) in the assay on COLO 205; > 100 µM (inactive) with HCT-116; > 100 µM (inactive) in the assay with HL-60; > 100 µM (inactive) in the assay with HOP-62; > 100 µM (inactive) in the assay on KM12. Also, the GI50 in the assay on LOX IMVI, in the assay with NCI-H226, in the assay with NCI-H23, in the assay with OVCAR-4, in the assay on RXF 393 and in the assay with SF-268 was > 100 µM (inactive) each time. Further, the GI50 was > 100 µM (inactive) with SF-295; 15 µM (inactive) in the assay on SF-539; > 100 µM (inactive) with SK-MEL-2; > 100 µM (inactive) in the assay with SR; > 100 µM (inactive) with UO-31.

Consider `CC1=C2C(=CC(C)(CO)C2O)C(=O)C(C)(O)C12CC2` (stereo not given), for which the GI50 was 0.00367 µM (active) in the assay on CAKI-1; 0.00353 µM (active) with COLO 205; 0.00123 µM (active) in the assay on HCT-116; 0.00131 µM (active) with HL-60; 0.00433 µM (active) in the assay on HOP-62; 0.00228 µM (active) with KM12. Moreover, the GI50 in the assay on LOX IMVI is 0.00161 µM (active); in the assay with NCI-H226, 0.00492 µM (active); in the assay on NCI-H23, 0.00203 µM (active); with OVCAR-4 it was 0.00243 µM (active); in the assay with RXF 393, 0.00163 µM (active); in the assay with SF-268, 0.00114 µM (active). In addition, the GI50 in the assay on SF-295 is 0.00115 µM (active); with SF-539, 0.00569 µM (active); in the assay on SK-MEL-2, 0.00148 µM (active); in the assay with SR it was 0.00347 µM (active); in the assay on UO-31, 0.00457 µM (active).
